{
  "source": "paper PMC7844219",
  "about": "“Antifibrotic effect of novel neutrophil gelatinase-associated lipocalin inhibitors in cardiac and renal disease models” (Scientific Reports, 2021)",
  "tested_on": "myocardial infarction mouse model",
  "assay": "Myocardial infarction (MI) mouse model, left coronary artery ligation",
  "assay_type": "in vivo",
  "conditions": "MI mice",
  "description": "Animals were housed in a climate-controlled facility with a 12-h/12-h light/dark cycle and provided free access to food and water. Experiments were approved by the Darwin ethics committee of Sorbonne University, and conducted according to the INSERM animal care and use committee guidelines. The NGAL inhibitor GP1 was incorporated in regular chow (A04, Safe, Augy, France) at the dose of 625 mg GP1/kg of chow to achieve a low dose of 100 mg/kg/day of GP1 administered to the mice (based on a daily consumption of 4 g of chow).\nMyocardial infarction (MI) was induced as previously described. Briefly, Chronic Heart Failure (CHF) resulted from left ventricle MI that was induced by left coronary artery ligation in 8 week-old male mice. Mice were anesthetized with intraperitoneal injections of ketamine (90 mg/kg, Merial, France) and xylazine (3.6 mg/kg, Bayer, France), followed by artificial ventilation. Anesthesia and sedation were controlled by monitoring heart rate and by performing paw pinch reflex and corneal reflex tests, before a thoracotomy was performed. The left main coronary artery was ligated close to its origin. After surgery, analgesia was prolonged during the awakening phase by an intramuscular injection of Beprucare (50 µg/kg). Post-infarction mortality in this mouse model is about 30–40%, primarily occurring around days 4–7 after MI. Sham-operated mice (control) were subjected to the same protocol except that the artery was not ligated. The inhibitor was administered the 8 day after MI for the indicated period. Tissue were harvested after 12 weeks after MI. Left ventricle diastolic and systolic diameters were measured in anesthetized (isofluorane 1.5%) mice, according to the American Society of Echocardiography’s leading-edge method (using Vivid 7 echograph a 14 MHz probe). In addition, LV outflow velocity was measured by pulsed waves, and CO was calculated as follows:\nCO=aortic VTI×π×LV outflow diameter/2^2×heart rate, where VTI is velocity–time integral.\nLV hemodynamic was assessed as described previously. Briefly, mice were anesthetized (chloral 320 mg/kg, IP) and the carotid artery cannulated with a pressure–volume catheter (SPR839, Millar-Instruments, USA) and the catheter was advanced into the LV. Pressure–volume loops were obtained at baseline and during loading by gently occluding the abdominal aorta. LV end-systolic and end-diastolic pressures, dP/dtmax/min, LV relaxation constant tau and were measured/calculated with IOX software (EMKA, France). Systolic BP was measured by tail-cuff plethysmography in trained conscious mice at weeks 8–10 using a BP2000 Visitech model. BP was measured every day in the same room at the same hour for 5 consecutive days. The BP measurements (expressed as mmHg) presented are the averages of the last 3 days.\nIn the MI model, heart was harvested after hemodynamics and the atria and the ventricles were separated and weighed individually. A section of the left ventricle was immersed in Bouin fixative solution. In the CKD model, kidneys were harvested and a section was immersed in paraformaldehyde fixative solution. After fixation, the sections were dehydrated and embedded in paraffin. From these sections, 5-μm thick histologic slices were obtained and were stained with Sirius Red. For the measurement of cardiac or renal collagen density, slides were examined and photographed under a light microscope (Zeiss) at 40× magnification. Collagen content was calculated as percentage of collagen area to total area of the image. Perivascular collagen was excluded from the analysis. For tubular lesions scoring, kidney slides were stained with Periodic Acid-Schiff kit (Sigma) and the score of tubules with injury (epithelial cell necrosis and detachment, and tubular dilation) was analyzed blinded to the experimental groups. […]",
  "data": [
    {"compound": "CC(=O)c1cccc(S(=O)(=O)NCc2ccccc2-n2cccn2)c1", "note": "[GPZ614741]", "values": [
      {"measurement": "SV (stroke volume)", "setting": "GP1 100 mg/kg/day in the food, three months, MI untreated 0.062 ± 0.005", "result": "0.086 ± 0.004", "unit": "ml/beat"},
      {"measurement": "LVESD (left ventricular end systolic diameter)", "setting": "GP1 100 mg/kg/day in the food, three months, MI untreated 5.47 ± 0.13", "result": "4.90 ± 0.39", "unit": "mm"},
      {"measurement": "tau 1/2 (relaxation constant)", "setting": "GP1 100 mg/kg/day in the food, three months, MI untreated 5.82 ± 0.32", "result": "4.33 ± 0.21"},
      {"measurement": "LVEDP", "setting": "GP1 100 mg/kg/day in the food, three months, MI untreated 5.91 ± 0.49", "result": "4.41 ± 0.57", "unit": "mmHg"},
      {"measurement": "LVEDD (left ventricular end diastolic diameter)", "setting": "GP1 100 mg/kg/day in the food, three months, MI untreated 6.31 ± 0.12", "result": "5.88 ± 0.39", "unit": "mm"},
      {"measurement": "tau e (relaxation constant)", "setting": "GP1 100 mg/kg/day in the food, three months, MI untreated 7.97 ± 0.45", "result": "6.08 ± 0.27"},
      {"measurement": "LVW/TL (left ventricle weight/tibia length)", "setting": "GP1 100 mg/kg/day in the food, three months, MI untreated 8.3 ± 0.3", "result": "8.8 ± 0.6", "unit": "mg/mm"},
      {"measurement": "HW/TL (heart weight/tibia length)", "setting": "GP1 100 mg/kg/day in the food, three months, MI untreated 10.9 ± 0.4", "result": "11.3 ± 0.8", "unit": "mg/mm"},
      {"measurement": "FS (fractional shortening)", "setting": "GP1 100 mg/kg/day in the food, three months, MI untreated 13.4 ± 1.0", "result": "17.2 ± 1.3", "unit": "%"},
      {"measurement": "CO (cardiac output)", "setting": "GP1 100 mg/kg/day in the food, three months, MI untreated 29.4 ± 1.9", "result": "47.1 ± 3.3", "unit": "mL/min"},
      {"measurement": "LVESP (left ventricular end systolic pressure)", "setting": "GP1 100 mg/kg/day in the food, three months, MI untreated 78.82 ± 2.76", "result": "82.31 ± 4.22", "unit": "mmHg"},
      {"measurement": "LV (dP/dtmin), relaxation index", "setting": "GP1 100 mg/kg/day in the food, three months, MI untreated 3117 ± 253", "result": "4487 ± 413"},
      {"measurement": "LV (dP/dtmax), contractility index", "setting": "GP1 100 mg/kg/day in the food, three months, MI untreated 3894 ± 259", "result": "4501 ± 320"},
      {"measurement": "LV interstitial collagen deposition vs non-treated MI group", "setting": "GP1 100 mg/kg/day in the food, Fig. 2A", "result": "significantly lower"},
      {"measurement": "Infarct size in mid LV sections", "setting": "GP1-treated, untreated 39.0 ± 2.3, n = 4–9, NS", "result": "40.0 ± 1.8", "unit": "%"},
      {"measurement": "Upregulation of cardiac IL6 protein and inflammatory markers CD68, CD80, CD86", "setting": "GP1, Fig. 2E", "result": "significantly prevented"},
      {"measurement": "Upregulation of Col I, αSMA and CTGF protein levels", "setting": "three months of GP1, Fig. 2B–D", "result": "significantly prevented"}
    ]}
  ]
}
